{"source": "ChEMBL document CHEMBL1201862", "about": "“PubChem BioAssay data set” (2004)", "key": {"[1]": {"molecular_target": "T1, Luciferin 4-monooxygenase (Photinus pyralis, UniProt P08659)", "T1 sequence (P08659 whole entry)": "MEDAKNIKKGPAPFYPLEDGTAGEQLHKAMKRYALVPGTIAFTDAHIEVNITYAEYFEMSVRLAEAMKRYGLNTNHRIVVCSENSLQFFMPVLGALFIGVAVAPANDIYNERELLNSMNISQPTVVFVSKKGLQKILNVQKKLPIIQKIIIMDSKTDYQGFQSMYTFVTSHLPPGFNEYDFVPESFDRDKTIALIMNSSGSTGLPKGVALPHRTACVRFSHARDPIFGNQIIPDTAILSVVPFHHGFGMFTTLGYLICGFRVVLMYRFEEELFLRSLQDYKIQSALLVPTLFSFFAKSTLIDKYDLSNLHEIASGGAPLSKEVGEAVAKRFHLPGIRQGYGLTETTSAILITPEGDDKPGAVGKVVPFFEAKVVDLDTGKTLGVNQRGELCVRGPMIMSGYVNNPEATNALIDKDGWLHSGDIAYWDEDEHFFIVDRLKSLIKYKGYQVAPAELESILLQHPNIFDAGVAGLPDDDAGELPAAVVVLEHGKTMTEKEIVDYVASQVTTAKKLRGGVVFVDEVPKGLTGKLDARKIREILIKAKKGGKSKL", "test": "firefly luciferase enzyme inhibitors, dose response, biochemical, luminescence (AID 1891)"}, "[2]": {"molecular_target": "T1, Luciferin 4-monooxygenase", "test": "Counter Screen for Luciferase-based Assay Positives. [Related pubchem assays: 620, 618, 411 ]"}, "[3]": {"test": "Luminescence Cell-Based Dose Confirmation HTS to Identify Inhibitors of Platelet Dense Granule Release. [Related pubchem assays: 1663 (Primary HTS), 1678 (Summary of Project)]", "format": "functional"}, "HT-1080": {"system": "HT-1080", "test": "cytotoxicity in HT1080 fibrosarcoma cells, cell-based, fluorescence readout (AID 620)", "format": "functional", "conditions": "Homo sapiens"}, "Caspase-3": {"molecular_target": "T2, Caspase-3 (Homo sapiens, UniProt P42574)", "T2 sequence (P42574 whole entry)": "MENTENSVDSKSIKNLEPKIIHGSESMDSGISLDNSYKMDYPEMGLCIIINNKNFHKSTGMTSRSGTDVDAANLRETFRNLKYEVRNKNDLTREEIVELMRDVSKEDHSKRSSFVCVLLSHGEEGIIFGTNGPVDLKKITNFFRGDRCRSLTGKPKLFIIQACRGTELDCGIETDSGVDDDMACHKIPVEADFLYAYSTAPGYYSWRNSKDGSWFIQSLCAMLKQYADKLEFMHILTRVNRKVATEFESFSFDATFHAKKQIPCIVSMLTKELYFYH", "test": "SAR Analysis of small molecule inhibitors of Sentrin-specific proteases (SENPs) using a Caspase-3 Selectivity assay. [Related pubchem assays (depositor defined):AID2540, AID2599, AID434973, AID489001]", "format": "functional"}, "Estrogen receptor": {"molecular_target": "T3, Estrogen receptor (Homo sapiens, UniProt P03372)", "T3 sequence (P03372 whole entry)": "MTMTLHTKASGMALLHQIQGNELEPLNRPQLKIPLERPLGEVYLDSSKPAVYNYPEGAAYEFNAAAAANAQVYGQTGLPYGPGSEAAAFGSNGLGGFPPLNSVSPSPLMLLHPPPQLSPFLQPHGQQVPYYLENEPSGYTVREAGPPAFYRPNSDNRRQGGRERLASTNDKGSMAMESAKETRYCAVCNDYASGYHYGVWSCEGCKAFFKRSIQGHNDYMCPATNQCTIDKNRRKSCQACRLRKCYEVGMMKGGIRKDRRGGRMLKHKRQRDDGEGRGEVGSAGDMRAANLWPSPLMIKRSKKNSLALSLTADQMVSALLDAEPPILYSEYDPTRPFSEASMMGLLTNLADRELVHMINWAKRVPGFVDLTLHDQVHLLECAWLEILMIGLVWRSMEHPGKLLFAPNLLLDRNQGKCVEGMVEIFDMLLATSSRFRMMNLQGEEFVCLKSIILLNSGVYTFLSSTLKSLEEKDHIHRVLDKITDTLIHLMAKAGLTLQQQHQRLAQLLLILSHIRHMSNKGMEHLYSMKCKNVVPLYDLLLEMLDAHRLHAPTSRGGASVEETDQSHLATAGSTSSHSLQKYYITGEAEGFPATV"}, "[4]": {"molecular_target": "T4, Sentrin-specific protease 7 (Homo sapiens, UniProt Q9BQF6)", "T4 sequence (Q9BQF6 whole entry)": "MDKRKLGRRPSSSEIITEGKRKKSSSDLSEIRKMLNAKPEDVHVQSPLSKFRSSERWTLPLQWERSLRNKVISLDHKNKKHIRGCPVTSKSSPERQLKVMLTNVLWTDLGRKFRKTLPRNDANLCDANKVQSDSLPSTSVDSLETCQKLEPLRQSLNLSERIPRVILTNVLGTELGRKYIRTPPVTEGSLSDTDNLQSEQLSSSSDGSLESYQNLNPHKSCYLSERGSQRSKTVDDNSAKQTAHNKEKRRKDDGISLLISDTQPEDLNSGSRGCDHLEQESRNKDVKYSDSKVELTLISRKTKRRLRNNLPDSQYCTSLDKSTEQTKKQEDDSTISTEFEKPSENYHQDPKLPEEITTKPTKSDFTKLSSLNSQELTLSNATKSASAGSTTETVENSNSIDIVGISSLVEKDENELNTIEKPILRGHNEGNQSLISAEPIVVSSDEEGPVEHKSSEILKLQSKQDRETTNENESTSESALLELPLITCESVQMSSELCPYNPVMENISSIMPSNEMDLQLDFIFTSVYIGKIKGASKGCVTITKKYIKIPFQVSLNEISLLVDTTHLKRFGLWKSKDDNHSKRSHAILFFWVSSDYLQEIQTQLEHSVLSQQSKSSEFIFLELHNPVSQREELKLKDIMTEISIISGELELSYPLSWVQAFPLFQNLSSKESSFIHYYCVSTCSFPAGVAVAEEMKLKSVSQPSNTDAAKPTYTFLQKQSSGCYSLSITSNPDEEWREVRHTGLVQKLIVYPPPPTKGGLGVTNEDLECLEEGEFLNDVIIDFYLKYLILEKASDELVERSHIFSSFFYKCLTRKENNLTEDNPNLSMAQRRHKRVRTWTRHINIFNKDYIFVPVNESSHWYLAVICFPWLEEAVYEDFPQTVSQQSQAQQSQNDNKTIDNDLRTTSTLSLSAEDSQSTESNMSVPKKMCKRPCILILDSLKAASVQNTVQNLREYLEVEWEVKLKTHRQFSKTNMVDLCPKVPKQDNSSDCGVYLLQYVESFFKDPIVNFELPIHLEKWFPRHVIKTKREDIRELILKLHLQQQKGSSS", "test": "SENP7 protease inhibitors, SAR follow-up, biochemical, luminescence (AID 504497)", "format": "functional"}, "[5]": {"molecular_target": "T5, Sentrin-specific protease 6 (Homo sapiens, UniProt Q9GZR1)", "T5 sequence (Q9GZR1 whole entry)": "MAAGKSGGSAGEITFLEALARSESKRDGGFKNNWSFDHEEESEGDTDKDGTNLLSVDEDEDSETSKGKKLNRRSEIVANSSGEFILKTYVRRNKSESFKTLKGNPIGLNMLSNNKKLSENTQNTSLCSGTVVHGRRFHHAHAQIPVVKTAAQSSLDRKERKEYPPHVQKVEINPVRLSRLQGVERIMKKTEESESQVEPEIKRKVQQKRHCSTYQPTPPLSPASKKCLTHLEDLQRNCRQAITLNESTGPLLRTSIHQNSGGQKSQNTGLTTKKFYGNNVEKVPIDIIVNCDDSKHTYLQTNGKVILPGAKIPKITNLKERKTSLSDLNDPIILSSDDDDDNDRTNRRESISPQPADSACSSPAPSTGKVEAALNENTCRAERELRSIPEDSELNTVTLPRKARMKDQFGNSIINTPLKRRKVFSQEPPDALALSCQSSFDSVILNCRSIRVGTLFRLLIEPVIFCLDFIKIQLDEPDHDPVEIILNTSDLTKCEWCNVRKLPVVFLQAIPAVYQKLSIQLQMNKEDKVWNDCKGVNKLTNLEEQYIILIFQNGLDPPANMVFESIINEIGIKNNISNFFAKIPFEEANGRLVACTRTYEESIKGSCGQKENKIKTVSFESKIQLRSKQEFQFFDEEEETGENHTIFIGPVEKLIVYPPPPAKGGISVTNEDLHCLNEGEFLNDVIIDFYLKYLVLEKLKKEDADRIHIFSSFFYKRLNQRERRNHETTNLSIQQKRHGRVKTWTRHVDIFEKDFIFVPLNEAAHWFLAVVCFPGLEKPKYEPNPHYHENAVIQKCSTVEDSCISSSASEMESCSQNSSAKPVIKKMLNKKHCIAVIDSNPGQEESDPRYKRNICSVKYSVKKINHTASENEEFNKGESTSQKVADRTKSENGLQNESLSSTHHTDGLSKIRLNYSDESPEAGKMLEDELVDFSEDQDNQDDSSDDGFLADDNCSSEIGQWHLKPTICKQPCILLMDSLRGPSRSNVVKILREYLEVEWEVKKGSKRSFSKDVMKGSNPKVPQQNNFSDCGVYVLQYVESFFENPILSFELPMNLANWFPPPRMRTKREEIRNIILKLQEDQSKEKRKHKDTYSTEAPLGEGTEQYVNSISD", "test": "SAR Analysis of small molecule inhibitors of Sentrin-specific protease 6 (SENP6) using a Luminescent assay. [Related pubchem assays (depositor defined):AID2582, AID2599]", "format": "functional"}, "[6]": {"molecular_target": "T6, Sentrin-specific protease 8 (Homo sapiens, UniProt Q96LD8)", "T6 sequence (Q96LD8 whole entry)": "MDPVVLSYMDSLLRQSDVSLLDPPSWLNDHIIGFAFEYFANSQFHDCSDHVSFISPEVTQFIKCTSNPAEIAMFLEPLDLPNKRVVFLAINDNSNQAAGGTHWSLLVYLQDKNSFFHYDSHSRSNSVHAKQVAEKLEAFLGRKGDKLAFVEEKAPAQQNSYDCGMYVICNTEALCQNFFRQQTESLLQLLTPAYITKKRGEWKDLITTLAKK", "test": "SENP8 protease inhibitors, SAR follow-up, biochemical, luminescence (AID 504501)", "format": "functional"}}, "note": "Calls of active or inactive are those of the source."}
{"smiles": "COC(=O)c1nn(-c2ccc(-c3ccccc3)cc2)cc1O", "values": [{"measurement": "EC50", "setting": "[1]", "result": "1.93 µM (active)"}, {"measurement": "EC50", "setting": "[2]", "result": "> 100 µM (not active)"}, {"measurement": "EC50", "setting": "[3]", "result": "3.79 µM (active)"}, {"measurement": "EC50", "setting": "HT-1080", "result": "> 50 µM (not active)"}]}
{"smiles": "CC1CCc2c(sc(NC(=O)c3ccc(Cn4cc(Br)cn4)o3)c2C(N)=O)C1", "note": "(stereo unspecified)", "values": [{"measurement": "IC50", "setting": "Caspase-3", "result": "> 99 µM (inactive)"}, {"measurement": "IC50", "setting": "Estrogen receptor", "result": "> 50 µM (not active)"}, {"measurement": "IC50", "setting": "[4]", "result": "> 99 µM (inactive)"}, {"measurement": "IC50", "setting": "[5]", "result": "> 99 µM (inactive)"}, {"measurement": "IC50", "setting": "[6]", "result": "> 99 µM (inactive)"}]}
{"smiles": "Cc1cc(C)c(OCC(=O)Nc2cccc(O)c2)cc1C", "values": [{"measurement": "EC50", "setting": "[2]", "result": "3.52 µM (active)"}, {"measurement": "EC50", "setting": "HT-1080", "result": "> 50 µM (not active)"}]}
